US20240059698A1 (Accutar Biotechnology Inc., priority 2022, published 2024)

What was measured:
[1] = system: HCC827-SVD cells (human EGFR exon 20 insertion mutant D770_N771insSVD); test: Cell growth inhibition (CellTiter-Glo), HCC827-SVD; assay type: cell-based; details: 72 h, 3 days
Procedure: (§1) Generation of HCC827-SVD, HCC827-ASV, and HCC827-YVMA cell lines. The HCC827-SVD cell line was generated by first transducing HCC827 cells (ATCC) with lentiviral particles expressing codon-optimized human EGFR exon 20 insertion mutant D770_N771insSVD, and then selecting under 5 µg/mL puromycin treatment for a week. The resulting cells were further transduced with lentiviral particles carrying EGFR sgRNA and CAS9 to knockout the endogenous alleles of EGER and then selected under 500 µg/mL hygromycin B treatment for two weeks. The limiting dilution approach was used to subsequently generate the single clone of the HCC827-SVD stable cell line. Endogenous EGFR knockout was confirmed by Sanger sequencing of cell genomic DNA, and expression of exogenous mutant EGFR was verified by Western blot analysis.
(§2) 2. Cell Growth Inhibition for HCC827, HCC827-SVD, HCC827-ASV, HCC827-YVMA, and A431.
(§3) HCC827(ATCC), HCC827-SVD, HCC827-ASV, and HCC827-YVMA cells were seeded in 96-well plates at 5000 cells/well in 90 μL of RPMI growth medium containing 10% FBS and 1% Penicillin Streptomycin. A431 (ATCC) cells were seeded in 96-well plates at 5000 cells/well in 90 μL of DMEM growth medium containing 10% FBS and 1% Penicillin Streptomycin. Cells were incubated at 37° C. overnight and then administered with 10 μL 10× test compounds prepared in the growth medium at various concentrations. After administration of the compounds, cells were incubated at 37° C. for 3 days. Before the CellTiter-Glo assay, the plates were equilibrated at room temperature for approximately 30 minutes. 100 ul of CellTiter-Glo reagent (Promega) was added to each well. The plates were then incubated at room temperature for 10 minutes and luminescence was recorded by the EnSight® multimode plate reader (PerkinElmer). Table 7 listed selected compounds in cellular growth assay.

[2] = system: HCC827-YVMA cells (human ERBB2 exon20 insertion mutant A775_G776ins YVMA); test: Cell growth inhibition (CellTiter-Glo), HCC827-YVMA; assay type: cell-based; details: 72 h, HCC827-YVMA cells, 3 days, CellTiter-Glo, read-out: Cell growth inhibition, GI50 (nM) HCC827-YVMA
Procedure: as §1
HCC827-ASV and HCC827-YVMA cell lines were generated in a similar approach as HCC827-SVD, except that HCC827 cells (ATCC) were first transduced with lentiviral particles expressing codon-optimized human EGFR exon 20 insertion mutant V769_D770insASV and human ERBB2 exon20 insertion mutant A775_G776ins YVMA, respectively.
as §2, §3

Row | SMILES | GI50 [1] | GI50 [2]
1 | C=CC(=O)N1CCC(c2c[nH]c3ncnc(Nc4ccc(Oc5ccnc(N6CCC(C)(F)C6)c5)cc4F)c23)CC1 (centres unmarked) [Compound 57, 1-[4-[4-[2-fluoro-4-[[2-(3-fluoro-3-methyl-pyrrolidin-1-yl)-4-pyridyl]oxy]anilino]-7H-pyrrolo[2,3-d]pyrimidin-5-yl]-1-piperidyl]prop-2-en-1-one] | 200 to 1000 nM | 200 to 1000 nM
2 | C=CC(=O)N1CCC(c2c[nH]c3ncnc(Nc4ccc(Oc5ccnc(NCC(F)(F)F)c5)cc4F)c23)CC1 [Compound 58, 1-(4-(4-((2-fluoro-4-((2-((2,2,2-trifluoroethyl)amino)pyridin-4-yl)oxy)phenyl)amino)-7H-pyrrolo[2,3-d]pyrimidin-5-yl)piperidin-1-yl)prop-2-en-1-one] | 200 to 1000 nM | 50 to 200 nM
3 | C=CC(=O)N1CCC(c2c[nH]c3ncnc(Nc4ccc(Oc5ccnc(Nc6ncc[nH]6)c5)cc4F)c23)CC1 [Compound 59, 1-(4-(4-((4-((2-((1H-imidazol-2-yl)amino)pyridin-4-yl)oxy)-2-fluorophenyl)amino)-7H-pyrrolo[2,3-d]pyrimidin-5-yl)piperidin-1-yl)prop-2-en-1-one] | > 1000 nM | 50 to 200 nM
4 | C=CC(=O)N1CCC(c2c[nH]c3ncnc(Nc4ccc(Oc5ccnc(-n6cc(F)cn6)c5)cc4F)c23)CC1 [Compound 61, 1-(4-(4-((2-fluoro-4-((2-(4-fluoro-1H-pyrazol-1-yl)pyridin-4-yl)oxy)phenyl)amino)-7H-pyrrolo[2,3-d]pyrimidin-5-yl)piperidin-1-yl)prop-2-en-1-one] | > 1000 nM | 200 to 1000 nM
5 | C=CC(=O)N1CCC(c2c[nH]c3ncnc(Nc4ccc(OCc5nc(CNc6ncn(C)n6)cs5)c(Cl)c4)c23)CC1 [Compound 62, 1-(4-(4-((3-chloro-4-((4-(((1-methyl-1H-1,2,4-triazol-3-yl)amino)methyl)thiazol-2-yl)methoxy)phenyl)amino)-7H-pyrrolo[2,3-d]pyrimidin-5-yl)piperidin-1-yl)prop-2-en-1-one] | 200 to 1000 nM | 50 to 200 nM
6 | C=CC(=O)N1CCC(c2c[nH]c3ncnc(Nc4ccc(Oc5ccnc(N6C[C@H]7CCC[C@H]7C6)c5)cc4F)c23)CC1 [Compound 63, 1-(4-(4-((2-fluoro-4-((2-((3aR,6aS)-hexahydrocyclopenta[c]pyrrol-2(1H)-yl)pyridin-4-yl)oxy)phenyl)amino)-7H-pyrrolo[2,3-d]pyrimidin-5-yl)piperidin-1-yl)prop-2-en-1-one] | 200 to 1000 nM | 200 to 1000 nM
7 | C=CC(=O)N1CCC(c2c[nH]c3ncnc(Nc4ccc(Oc5ccnc(C6CCOCC6)c5)cc4F)c23)CC1 [Compound 64, 1-(4-(4-((2-fluoro-4-((2-(tetrahydro-2H-pyran-4-yl)pyridin-4-yl)oxy)phenyl)amino)-7H-pyrrolo[2,3-d]pyrimidin-5-yl)piperidin-1-yl)prop-2-en-1-one] | > 1000 nM | 200 to 1000 nM
8 | C=CC(=O)N1CCC(c2c[nH]c3ncnc(Nc4ccc(Oc5ccnc(Nc6cccnc6)c5)cc4F)c23)CC1 [Compound 65, 1-(4-(4-((2-fluoro-4-((2-(pyridin-3-ylamino)pyridin-4-yl)oxy)phenyl)amino)-7H-pyrrolo[2,3-d]pyrimidin-5-yl)piperidin-1-yl)prop-2-en-1-one] | 200 to 1000 nM | 200 to 1000 nM
9 | C=CC(=O)N1CCC(c2c[nH]c3ncnc(Nc4ccc(Oc5ccnc(-c6ccn(C)n6)c5)cc4F)c23)CC1 [Compound 66, 1-(4-(4-((2-fluoro-4-((2-(1-methyl-1H-pyrazol-3-yl)pyridin-4-yl)oxy)phenyl)amino)-7H-pyrrolo[2,3-d]pyrimidin-5-yl)piperidin-1-yl)prop-2-en-1-one] | 200 to 1000 nM | 50 to 200 nM
10 | C=CC(=O)N1CCC(c2c[nH]c3ncnc(Nc4ccc(OCc5nnc[nH]5)c(Cl)c4)c23)CC1 [Compound 67, 1-(4-(4-((4-((4H-1,2,4-triazol-3-yl)methoxy)-3-chlorophenyl)amino)-7H-pyrrolo[2,3-d]pyrimidin-5-yl)piperidin-1-yl)prop-2-en-1-one] | 200 to 1000 nM | 200 to 1000 nM
11 | C=CC(=O)N1CCC(c2c[nH]c3ncnc(Nc4ccc(Oc5ccnc(Nc6nccs6)c5)cc4F)c23)CC1 [Compound 72, 1-(4-(4-((2-fluoro-4-((2-(thiazol-2-ylamino)pyridin-4-yl)oxy)phenyl)amino)-7H-pyrrolo[2,3-d]pyrimidin-5-yl)piperidin-1-yl)prop-2-en-1-one] | 200 to 1000 nM | 50 to 200 nM

Second part, the compound after the results:

Row | GI50 [1] | GI50 [2] | SMILES
12 | 200 to 1000 nM | 200 to 1000 nM | C=CC(=O)N1CCC(c2c[nH]c3ncnc(Nc4ccc(Oc5ccnc(NC6(C)CC6)c5)cc4F)c23)CC1 [Compound 56, 1-(4-(4-((2-fluoro-4-((2-((1-methylcyclopropyl)amino)pyridin-4-yl)oxy)phenyl)amino)-7H-pyrrolo[2,3-d]pyrimidin-5-yl)piperidin-1-yl)prop-2-en-1-one]
13 | 50 to 200 nM | 200 to 1000 nM | C=CC(=O)N1CCC(c2c[nH]c3ncnc(Nc4ccc(OCc5cnn6c5CCCC6)c(Cl)c4)c23)CC1 [Compound 60, 1-(4-(4-((3-chloro-4-((4,5,6,7-tetrahydropyrazolo[1,5-a]pyridin-3-yl)methoxy)phenyl)amino)-7H-pyrrolo[2,3-d]pyrimidin-5-yl)piperidin-1-yl)prop-2-en-1-one]
14 | < 50 nM | < 50 nM | C=CC(=O)N1CCC(c2c[nH]c3ncnc(Nc4ccc(OCc5cnc6n5CCCC6)c(Cl)c4)c23)CC1 [Compound 68, 1-(4-(4-((3-chloro-4-((5,6,7,8-tetrahydroimidazo[1,2-a]pyridin-3-yl)methoxy)phenyl)amino)-7H-pyrrolo[2,3-d]pyrimidin-5-yl)piperidin-1-yl)prop-2-en-1-one]
15 | < 50 nM | < 50 nM | C=CC(=O)N1CCC(c2c[nH]c3ncnc(Nc4ccc(CNc5ccccn5)cc4F)c23)CC1 [Compound 69, 1-(4-(4-((2-fluoro-4-((pyridin-2-ylamino)methyl)phenyl)amino)-7H-pyrrolo[2,3-d]pyrimidin-5-yl)piperidin-1-yl)prop-2-en-1-one]
16 | < 50 nM | 50 to 200 nM | C=CC(=O)N1CCC(c2c[nH]c3ncnc(Nc4ccc(C(=O)Nc5ccccn5)cc4F)c23)CC1 [Compound 70, 4-((5-(1-acryloylpiperidin-4-yl)-7H-pyrrolo[2,3-d]pyrimidin-4-yl)amino)-3-fluoro-N-(pyridin-2-yl)benzamide]
17 | < 50 nM | < 50 nM | C=CC(=O)N1CCC(c2c[nH]c3ncnc(Nc4ccc(OCc5cnccc5OC)c(Cl)c4)c23)CC1 [Compound 71, 1-(4-(4-((3-chloro-4-((4-methoxypyridin-3-yl)methoxy)phenyl)amino)-7H-pyrrolo[2,3-d]pyrimidin-5-yl)piperidin-1-yl)prop-2-en-1-one]
18 | < 50 nM | < 50 nM | C=CC(=O)N1CCC(c2c[nH]c3ncnc(Nc4ccc(OCc5ccc6cc[nH]c6n5)c(Cl)c4)c23)CC1 [Compound 73, 1-(4-(4-((4-((1H-pyrrolo[2,3-b]pyridin-6-yl)methoxy)-3-chlorophenyl)amino)-7H-pyrrolo[2,3-d]pyrimidin-5-yl)piperidin-1-yl)prop-2-en-1-one]
19 | < 50 nM | < 50 nM | C=CC(=O)N1CCC(c2c(-c3ccc(N4CCN(C)CC4)cc3)[nH]c3ncnc(Nc4ccc(OCc5ccccn5)c(Cl)c4)c23)CC1 [Compound 74, 1-(4-(4-((3-chloro-4-(pyridin-2-ylmethoxy)phenyl)amino)-6-(4-(4-methylpiperazin-1-yl)phenyl)-7H-pyrrolo[2,3-d]pyrimidin-5-yl)piperidin-1-yl)prop-2-en-1-one]
20 | < 50 nM | < 50 nM | C=CC(=O)N1CCC(c2c[nH]c3ncnc(Nc4ccc(OCc5ccc6sccc6n5)c(Cl)c4)c23)CC1 [Compound 75, 1-(4-(4-((3-chloro-4-(thieno[3,2-b]pyridin-5-ylmethoxy)phenyl)amino)-7H-pyrrolo[2,3-d]pyrimidin-5-yl)piperidin-1-yl)prop-2-en-1-one]
21 | < 50 nM | < 50 nM | C=CC(=O)N1CCC(c2c(C)[nH]c3ncnc(Nc4ccc(OCc5ccccn5)c(Cl)c4)c23)CC1 [Compound 76, 1-(4-(4-((3-chloro-4-(pyridin-2-ylmethoxy)phenyl)amino)-6-methyl-7H-pyrrolo[2,3-d]pyrimidin-5-yl)piperidin-1-yl)prop-2-en-1-one]
22 | < 50 nM | < 50 nM | C=CC(=O)N1CCC(c2c[nH]c3ncnc(Nc4ccc(OCc5cncnc5)c(Cl)c4)c23)CC1 [Compound 77, 1-(4-(4-((3-chloro-4-(pyrimidin-5-ylmethoxy)phenyl)amino)-7H-pyrrolo[2,3-d]pyrimidin-5-yl)piperidin-1-yl)prop-2-en-1-one]
